Data as given in paper PMC8930988, “The NSAID glafenine rescues class 2 CFTR mutants via cyclooxygenase 2 inhibition of the arachidonic acid pathway” (Scientific Reports, 2022).
Structures can show the parent of a compound that is named as a salt.

Target: T1, cyclooxygenase 2 (COX2) (Homo sapiens, UniProt P35354)
T1 construct: gene PTGS2; recombinant COX-2 (kit)
T1 sequence (P35354 18-604): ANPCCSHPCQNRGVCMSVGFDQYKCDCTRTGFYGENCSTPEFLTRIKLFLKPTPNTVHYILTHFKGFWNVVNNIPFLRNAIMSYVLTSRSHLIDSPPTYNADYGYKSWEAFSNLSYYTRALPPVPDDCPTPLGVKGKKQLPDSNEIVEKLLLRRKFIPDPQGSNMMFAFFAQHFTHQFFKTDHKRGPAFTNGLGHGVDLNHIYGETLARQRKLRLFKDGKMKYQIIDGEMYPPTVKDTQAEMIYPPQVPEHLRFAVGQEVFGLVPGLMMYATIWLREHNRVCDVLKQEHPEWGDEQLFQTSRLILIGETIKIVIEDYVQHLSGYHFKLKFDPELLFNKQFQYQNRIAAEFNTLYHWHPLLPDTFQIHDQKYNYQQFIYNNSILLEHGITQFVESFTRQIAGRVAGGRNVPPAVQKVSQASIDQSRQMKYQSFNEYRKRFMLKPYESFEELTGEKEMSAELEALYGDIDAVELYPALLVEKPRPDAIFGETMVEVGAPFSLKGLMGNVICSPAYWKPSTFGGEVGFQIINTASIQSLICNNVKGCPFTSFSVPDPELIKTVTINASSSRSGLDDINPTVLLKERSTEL
Test: COX activity assay with recombinant enzyme, […] compound (Fig. 4E)
Type: biochemical

O=C(OCC(O)CO)c1ccccc1Nc1ccnc2cc(Cl)ccc12 (stereo not shown) [compound 37, 2,3-dihydroxypropyl 2-[(7-chloroquinolin-4-yl)amino] benzoate; hydrochloride]
COX activity assay with recombinant enzyme, 10 μM compound (Fig. 4E): COX2 inhibition is required for glafenine-mediated CFTR correction and that glafenine interacts directly with COX2
